From patent publication US20090076021A1, “THERAPEUTIC COMBINATIONS AND METHODS FOR CARDIOVASCULAR IMPROVEMENT AND TREATING CARDIOVASCULAR DISEASE” (priority 2006, published 2009)

System: Hypothyroid rats
Test: Cardiac performance (Millar direct catheter system) in PTU-fed hypothyroid rats after 4 days of treatment
Assay type: in vivo, Male S.D. rats
Procedure: Male S.D. rats (7 wks old) were rendered hypothyroid by being fed PTU diet (n 48; iodine deficient, 0.15% propylthiouracil) or normal chow (n=8) for 2 weeks. PTU fed rats were then separated into weight-matched groups the day prior to inception of the study, and treated for 4 days with vehicle (0.05 mL/100 g BW i.p.; 20% Cremophor EL; 20% ethanol; 60% H2O) or T3 (3 μg/kg) and scriptaid (1.5, 15 mg/kg) or its vehicle (100% DMSO; 0.04 mL/100 g BW i.p.). Because of differential pharmacodynamics of T3 and scriptaid, each animal received T3 or its vehicle at least 3 hours prior to receiving scriptaid or its vehicle. Following 4 days of treatment, core temperature, systemic hemodynamics, and cardiac performance data were collected under isoflurane anesthesia using the Millar direct catheter system no less two hours following scriptaid administration. At the conclusion of the experiment the animals were sacrificed, and blood and tissues collected for morphological and biochemical analysis. Hypothyroid rats have impaired systolic and diastolic cardiac performance relative to euthyroid control rats, while scriptaid alone exerted no effects on either systolic or diastolic cardiac performance.

[1] = scriptaid (1.5, 15 mg/kg i.p.) coadministered with T3 (3 μg/kg), hypothyroid rats, compared with T3 alone

| SMILES | maximal positive and negative dP/dt (indices of systolic and diastolic performance) (T3 3 μg/kg, hypothyroid (PTU diet) rats, FIG. 1) | tau (an index of myocardial relaxation) (T3 3 μg/kg, hypothyroid (PTU diet) rats, FIG. 2) | maximal +/−dP/dt [1] | tau [1] | systolic or diastolic cardiac performance (scriptaid alone (1.5, 15 mg/kg i.p.), hypothyroid (PTU diet) rats, isoflurane anesthesia) |
| --- | --- | --- | --- | --- | --- |
| N[C@@H](Cc1cc(I)c(Oc2ccc(O)c(I)c2)c(I)c1)C(=O)O [T3, triiodothyronine] | increased | improved |  |  |  |
| O=C(CCCCCN1C(=O)c2cccc3cccc(c23)C1=O)NO [scriptaid, 6-(1,3-Dioxo-1H,3H-benzo[de]isoquinolin-2-yl)-hexanoic acid hydroxyamide] |  |  | significantly enhanced the effects of T3 treatment | significantly enhanced the effects of T3 treatment | no effects |
